Reference: US20160311886A1, “Constructs Binding to Phosphatidylserine and Their Use in Disease Treatment and Imaging” (Board of Regents, The University of Texas System, priority 2005, published 2016)

Legend:
[1] = tested on: Pan02 mouse pancreatic adenocarcinoma; assay: 3G4 and gemcitabine, pancreatic cancer; format: in vivo; conditions: 3G4 100 μg, gemcitabine 3.5 mg; day 22
Description: Pan02 mouse pancreatic adenocarcinoma cells were injected into the pancreas of immunocompetent C57BL/6 mice. Treatment was started on day 5 after tumor cell injection. […] Gemcitabine is a pyrimidine anti-metabolite. The animals were sacrificed at day 22 after tumor cell injection, and the tumor weight determined.

ABAE cells = assay: Induction of PS exposure, 125I-annexin V binding; format: cell-based, bovine; conditions: ABAE and bEnd.3 cells, immunohistochemically
Description: All reagents were diluted in medium containing 10% serum and incubated with the cells at 37° C. for 24 h.
To study the effect of hypoxia, cells were seeded on 24 well plates and were incubated in a humidified normoxic atmosphere (21% O2, 5% CO2) for 48 h before being transferred to a humidified hypoxic atmosphere (1% O2, 5% CO2, 94% N2) in a sealed chamber (Billups Rothenberg Inc., Del Mar, Ca). Cells were incubated in a hypoxic chamber for 24 h at 37° C. and were then returned to a normoxic environment for 4 h at 37° C. The cells were compared to a parallel culture from an identical passage, seeded on the same day and maintained entirely under normoxic conditions. In some studies, IL-1α (10 ng/ml) and TNFα (20 ng/ml) were added to the medium before transfer to the hypoxic chamber.
After treatment with the reagents described above, treated and control cells were incubated with 7.1 pmoles of ^125I-labeled annexin V (200 μl/well) in the binding buffer. After 2 h incubation at room temperature, cells were washed extensively and dissolved in 0.5 M of NaOH. The entire volume of 0.5 ml was transferred to plastic tubes and counted in a gamma counter. Non-specific binding was determined in the presence of 5 mM EDTA and was subtracted from experimental values. The results were expressed as net pmoles of cell-bound annexin V, normalized per 1×10^6 cells.
Maximal binding of annexin V was determined on cells simultaneously treated with actinomycin D and TNFα (50 ng/ml of each component). As has been previously reported, these agents cause apoptosis and PS exposure in 90-100% of endothelial cells (Lucas et al., 1998). Basal binding of ^125I-annexin V to untreated cells was determined in the presence of medium with 10% serum. The amount of ^125I-annexin V that bound to the untreated cultures was subtracted from that in the treated cultures. Exposure of PS was calculated according to the following formula: cell-bound annexin V (pmoles) under experimental conditions divided by maximal annexin V binding (pmoles), multiplied by 100. Each study was performed in duplicate and was performed at least three times. Mean values were calculated. The SE of the mean values from three separate experiments was less than 5%.

bEnd.3 endothelial cells = assay: H2O2 induction of PS, anti-PS staining and Trypan Blue exclusion
[2] = Phospholipid specificity ELISA; format: binding
Description: The specificity of the antibodies was determined by ELISA using plates coated with the following phospholipids: PS, phosphatidylserine; PE, phosphatidylethanolamine; PI, phosphatidylinositol; PA, phosphatidic acid; PG, phosphatidylglycerol; PC, phosphatidylcholine; CL, cardiolipin; and SM, sphingomyelin.

human β2GPI = target: T1, human β2GPI (Homo sapiens, UniProt P02749); assay: Anti-hβ2GPI ELISA; format: binding
T1 construct: Human β2GPI (hβ2GP1) was purified from human plasma essentially as described previously; from tissue; host or cells: pooled human plasma
T1 sequence (P02749 20-345): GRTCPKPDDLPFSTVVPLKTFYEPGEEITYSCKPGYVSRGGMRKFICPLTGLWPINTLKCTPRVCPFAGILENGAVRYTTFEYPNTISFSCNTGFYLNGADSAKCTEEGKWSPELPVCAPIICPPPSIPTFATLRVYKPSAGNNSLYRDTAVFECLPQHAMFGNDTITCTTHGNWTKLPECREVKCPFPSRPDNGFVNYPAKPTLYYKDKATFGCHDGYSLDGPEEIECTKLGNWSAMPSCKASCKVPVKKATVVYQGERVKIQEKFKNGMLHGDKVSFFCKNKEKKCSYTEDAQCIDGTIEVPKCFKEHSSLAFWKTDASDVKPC
Description: The assay was performed as described above with the following modifications. hβ2GPI, nicked hβ2GPI, or recombinant hβ2GPI peptides were coated on 96-well Immunlon 2HB microtiter plates overnight at a concentration of 10 μg/ml. Plates were then blocked in 1% OVA for 1 hr. at room temperature. […] Plates were incubated for 1 hr. at 37° C. and antibody binding was detected. All ELISA studies were performed at least three times.

[3] = tested on: U937 cells infected with Vaccinia virus; format: cell-based; conditions: m.o.i of 2, 2 days
MDA-MB-435 breast tumors = assay: 3G4 and chimeric 3G4 tumor treatment; format: in vivo, mouse; conditions: MD-MBA-435s; IP 800 μg day 15, 200 μg every two to three days, 400 μg day 35
Description: Tumors were also established using MD-MBA-435s cells and treated as described above. […] The treatment of large L540 tumors, MDA-MB-231 and MD-MBA-435s tumor cells for 60 days was also effective. The antibodies caused tumor vascular injury, thrombosis and necrosis and retarded tumor growth, with no evidence of toxicity.
MD-MBA-435s lucerifase cells were obtained from Dr. Angels Sierra Jimenez, Barcelona, Spain and were grown in 10% DMEM. Mice were injected with tumor cells as described as above, and at 2 weeks post injection, the tumors were measured and the volume recorded. […] Treatment was initiated by IP injection (800 μg) at day 15 and continued with injections of 200 μg every two to three days until the final injection of 400 μg at day 35. Tumor volumes and mouse body weights were measured on injection days. Mice were sacrificed and perfused with saline for 12 minutes. The organs and tumor were removed, snap-frozen in liquid nitrogen and the tumor sectioned for immunohistochemistical analysis.
Groups of 8-10 female SCID mice were injected subcutaneously with 2×10^7 L540 cells or orthotopically with 1×10^7 MDA-MB-435 or MDA-MB-231 cells. BALB/c mice were injected subcutaneously with 1×10^6 Meth A cells. […] Animals were monitored three times a week for tumor size and body weight. […]

[4] = Binding of ch3G4 and 2aG4 to phospholipid-coated ELISA plates; conditions: vs murine 3G4
WiDr (colon carcinoma) = assay: WiDr colon carcinoma model; format: in vivo, mouse; conditions: 100 μg 3×/week from day 5; preliminary study
Description: Treatment was started on day 5, when the tumors were small (10 mice per group). 100 μg of each antibody was injected 3×/week and tumor growth monitored.

[5] = tested on: syngeneic prostatic tumors; assay: Bavituximab in rats with syngeneic prostatic tumors; conditions: rat, in vivo
[6] = Administration to atherosclerotic rabbits; conditions: rabbit, in vivo
Monkey safety studies = format: in vivo, cynomolgus monkeys; conditions: repeat dosing
Description: This is 100 times the calculated therapeutic dose ([…]).

mCMV RVG102 = assay: Survival of mCMV-infected mice; format: in vivo, mouse; conditions: past 90 days post infection; untreated 25%
[7] = Serum dependence of binding to PS
Description: The serum dependence or independence of the antibodies is also set forth in Table 2 (see also, Example XXX).
The 1B9, 2G7 and 7C5 antibodies behave essentially the same. These antibodies recognize only PS and require serum or serum proteins for binding to PS. The binding of 1B9, 2G7 and 7C5 to various phospholipids in the present example was assayed only in the presence of 10% bovine serum, whereas binding of the other antibodies was tested either in the absence or in the presence of serum.

[8] = tested on: ABAE cells with exposed PS; assay: Live-cell binding assay on LPC-treated endothelial cells; format: cell-based, bovine
Description: Adult bovine aortic endothelial (ABAE) cells were maintained in DMEM supplemented with 10% FBS and 2 mM L-glutamine. ABAE cells were removed from subconfluent cultures by brief exposure to 0.25% trypsin/0.02% EDTA, and 8-well chamber slides were seeded with 2×10^4 cells/well. Following overnight culture, cells were washed gently with PBS and treated with 200 μM lysophosphatidylcholine (LPC) to induce PS exposure.
PS exposure was determined by immunofluorescence staining. Cells were washed thoroughly in PBS, fixed in 4% paraformaldehyde (w/v), and incubated with a biotin-conjugated anti-mouse secondary antibody. Next, cells were incubated with FITC-conjugated streptavidin (Jackson Immunoresearch) to detect antibody binding. Cells were then permeablized with 0.1% Triton-X100 in PBS and counterstained with Texas Red-conjugated phalloidin (Molecular Probes, Eugene, Oreg.), and 4′, 6-diamidino-2-phenylindole (DAPI; Molecular Probes). Images were captured using a Coolsnap digital camera (Photometrics, Tucson, Ariz.) mounted on a Nikon microscope and processed with MetaVue software (Universal Imaging Corporation, Downingtown, Pa.).
The area of antibody binding was determined using MetaVue image analysis software, which is able to quantify the number of illuminated pixels in an image. Images of FITC fluorescence were used to quantify antibody binding. Corresponding images of DAPI fluorescence were used to normalize the FITC images for the number of cells present in the field. A small FITC/DAPI ratio indicates a small antibody binding area, whereas a large FITC/DAPI ratio indicates a large binding area. The FITC/DAPI ratios were used to determine increases or decreases in antibody binding area relative to a basal amount of antibody binding under the selected conditions. Five images at 200× magnification were used for each analysis. Data are presented as average relative FITC/DAPI ratios with error bars representing the standard deviation.
Cells were then washed, fixed, and stained with fluorescent markers to visualize binding of antibody to the cell surface.

HUVEC and HMVEC = assay: Docetaxel-induced PS exposure on endothelial cells, FACS; format: cell-based, human
Description: The induction of PS exposure on endothelial cells by subclinical concentrations of docetaxel was examined in vitro by FACS analysis. […] […] Docetaxel incubations for 48 and 72 hrs were also conducted.

tumor vessels = assay: Docetaxel-induced PS exposure on tumor vessels; format: in vivo, mouse; conditions: after docetaxel treatment; 35% before
From the text: In such studies, docetaxel treatment of mice increased the percentage of tumor vessels that expose anionic phospholipids from 35% to 60%. No induction of PS was observed on vessels in normal tissues even after systemic treatment with docetaxel.

[9] = tested on: 3LL, Colo26, MDA-MB-435, B16, Meth A cells; assay: Docetaxel-induced PS exposure on tumor cell lines, FACS; format: cell-based, mouse, human; conditions: 10 nM, 24 hrs
Description: The in vitro induction of PS exposure by subclinical concentrations of docetaxel was also examined by FACS analysis using a panel of tumor cell lines. Mouse lewis lung carcinoma 3LL, mouse colon carcinoma Colo26 and human breast cancer MDA-MB-435 cells were treated with 10 nM of docetaxel for 24 hrs and examined by FACS. […] Docetaxel incubations for 48 and 72 hrs were also conducted.

## Nc1ccn([C@@H]2O[C@H](CO)[C@@H](O)C2(F)F)c(=O)n1 [gemcitabine, reference compound]
[1]
  anti-tumor effect (tumor weight): significant anti-tumor effect

## OO [Hydrogen peroxide, hydrogen peroxide]
ABAE cells
  cells that bound biotinylated annexin V: More than 70%
bEnd.3 endothelial cells; H2O2 at high concentrations
  cell viability: 50-60%
bEnd.3 endothelial cells; low levels of H2O2, identical to untreated control
  cell viability: 95%

## ch3G4: Human-mouse chimeric (human IgG1) version of 3G4, termed bavituximab
[2]
  Relative Strength of Reactivity on ELISA: PS = PA = PI = PG = CL >> PE
Human β2GPI
  binding to nicked hβ2GPI coated on microtiter plates: binds nicked hβ2GPI as well as hβ2GPI
[3]
  FACS shift vs uninfected cells: significant shift
MDA-MB-435 breast tumors
  tumor growth vs control: effectively retarded tumor growth
[4]
  binding to phospholipid-coated ELISA plates: bound at least as did well as the murine 3G4
WiDr (colon carcinoma)
  tumor growth: slowed tumor growth to essentially the same degree
[5]
  tumor homing of radiolabeled antibody: shown to home to syngeneic prostatic tumors in rats
  tumor perfusion: Reduced tumor perfusion
[6]; listed as chimeric version of the 3G4 antibody
  safety in atherosclerotic rabbits: did not exacerbate aortic atherosclerotic lesions
[6]; listed as humanized 3G4 antibody
  safety in atherosclerotic rabbits: shown to be safe
Monkey safety studies
  No adverse effect level (NOAEL): approximately 10 mg/kg/week
mCMV RVG102
  survival: 80%
[7]
  Serum cofactor?: Yes
[8]; 10% MS plus purified hβ2GPI
  binding to LPC-treated ABAE cells: widespread binding
[8]; 10% MS, no hβ2GPI
  binding to LPC-treated ABAE cells: no antibody binding was detected

## CC(=O)O[C@@]12CO[C@@H]1C[C@H](O)[C@@]1(C)C(=O)[C@H](O)C3=C(C)[C@@H](OC(=O)[C@H](O)[C@@H](NC(=O)OC(C)(C)C)c4ccccc4)C[C@@](O)([C@@H](OC(=O)c4ccccc4)[C@H]21)C3(C)C [docetaxel]
HUVEC and HMVEC; 20 pM
  externalization of anionic phospholipids on HUVEC: caused anionic phospholipids to be externalized without inducing apoptosis
HUVEC and HMVEC; 10 nM, 24 hrs
  3G4 binding vs untreated cells: significant increase in 3G4 binding
Tumor vessels
  tumor vessels that expose anionic phospholipids: 60%
[9]
  3G4 binding vs untreated cells: significant increase in 3G4 binding
